Assay [1] concerns tail flick. The assay can be described thus: Mouse tail flick analgesic testing (TF). The format is in vivo, mice. As to conditions: Mus musculus; tail flick, mice. An excerpt:
(§1) Tests Using Thermal Nociceptive Stimuli
(b) Mouse Tail Flick Analgesic Testing
Tail flick testing in mice is modified after D'Amour and Smith, J. Pharmacol. Exp. Ther., 72, 74-79 (1941), using controlled high intensity heat applied to the tail. Each mouse is placed in a snug-fitting metal cylinder, with the tail protruding through one end. This cylinder is arranged so that the tail lies flat over a concealed heat lamp. At the onset of testing, an aluminum flag over the lamp is drawn back allowing the light beam to pass through the slit and focus onto the end of the tail. A timer is simultaneously activated. The latency of a sudden flick of the tail is ascertained. Untreated mice usually react within 3-4 seconds after exposure to the lamp. The end point for protection is 10 seconds. Each mouse is tested at 0.5 and 2 hours after treatment with morphine and the test compound. Morphine has an MPE50 of 3.2-5.6 mg./kg. (s.c.).
(§2) Results of the above tests are recorded as percent maximum possible effect (% MPE). The % MPE of each group is statistically compared to the % MPE of the standard and the predrug control values. The % MPE is calculated as follows: [formula]
(§3) By means of the above procedures, the analgesic activity of several compounds of this invention and of certain prior art compounds are determined. The data are reported in terms of maximum possible effect.
(§4) PBQ=phenylbenzoquinone-induced writhing; TF=tail flick; HP=hot plate; RTC=rat tail clamp; FJ=flinch jump; and TI=tail immersion assays.

In assay [2] the test system is rat tail clamp. Nature of the assay: Haffner tail pinch procedure / rat tail clamp (RTC). Format: in vivo, male albino rats, Charles River (Sprague-Dawley) CD strain. Conditions: 1 hour, read-out: ANALGESIC ACTIVITY ED50, RTC 1 hour. As to the method: Tests Using Pressure Nociceptive Stimuli
Effect on the Haffner Tail Pinch Procedure
A modification of the procedure of Haffner, Experimentelle Prufung Schmerzstillender. Mittel Deutch Med. Wschr., 55, 731-732 (1929) is used to ascertain the effects of the test compound on aggressive attacking responses elicited by a stimulus pinching the tail. Male albino rats (50-60 b.) of the Charles River (Sprague-Dawley) CD strain are used. Prior to drug treatment, and again at 0.5, 1, 2 and 3 hours after treatment, a Johns Hopkins 2.5-inch "bulldog" clamp is clamped onto the root of the rat's tail. The endpoint at each trial is clear attacking and biting behavior directed toward the offending stimulus, with the latency for attack recorded in seconds. The clamp is removed in 30 seconds if attacking has not yet occurred, and the latency of response is recorded as 30 seconds. Morphine is active at 17.8 mg./kg. (i.p.).
as §2, §3, §4

Assay [3] deals with hot plate. The assay can be described thus: Mouse hot plate analgesic testing (HP). The format is in vivo, mice. Conditions: Mus musculus; hot plate, mice. As to the method:
as §1
(a) Mouse Hot Plate Analgesic Testing
The method used is modified after Woolfe and MacDonald, J. Pharmacol. Exp. Ther., 80, 300-307 (1944). A controlled heat stimulus is applied to the feet of mice on a 1/8" thick aluminum plate. A 250 watt reflector infrared heat lamp is placed under the bottom of the aluminum plate. A thermal regulator, connected to thermistors on the plate surface, programs the heat lamp to maintain a constant temperature of 57° C. Each mouse is dropped into a glass cylinder (61/2" diameter) resting on the hot plate, and timing is begun when the animal's feet tough the plate. The mouse is observed at 0.5 and 2 hours after treatment when the test compound for the first "flicking"movements of one or both hind feet, or until 10 seconds elapse without such movements. Morphine has an MPE50 =4-5.6 mg./kg. (s.c.).
as §2, §3, §4

The subject of assay [4] is tail immersion. Nature of the assay: Tail immersion procedure (TI). Format: in vivo, male albino mice, Charles River CD-1 strain. Conditions: Mus musculus, 0.5 h; tail immersion, mice, 1/2 hour; read-out: ANALGESIC ACTIVITY ED50, TI 1/2 hour. How it is done:
(c) Tail Immersion Procedure
The method is a modification of the receptacle procedure developed by Benbasset, et al., Arch. int. Pharmacodyn., 122, 434 (1959). Male albino mice (19-21 g.) of the Charles River CD-1 strain are weighed and marked for identification. Five animals are normally used in each drug treatment group with each animal serving as its own control. For general screening purposes, new test agents are first administered at a dose of 56 mg./kg. intraperitoneally or subcutaneously, delivered in a volume of 10 ml./kg. Preceding drug treatment and at 0.5 and 2 hours post drug, each animal is placed in the cylinder. Each cylinder is provided with holes to allow for adequate ventilation and is closed by a round nylon plug through which the animal's tail protrudes. The cylinder is held in an upright position and the tail is completely immersed in the constant temperature waterbath (56° C.). The endpoint for each trial is an energetic jerk or twitch of the tail coupled with a motor response. In some cases, the endpoint may be less vigorous post drug. To prevent undue tissue damage, the trial is terminated and the tail removed from the waterbath within 10 seconds. The response latency is recorded in seconds to the nearest 0.5 second. A vehicle control and a standard of known potency are tested concurrently with screening candidates. If the activity of a test agent has not returned to baseline values at the 2-hour testing point, response latencies are determined at 4 and 6 hours. A final measurement is made at 24 hours if activity is still observed at the end of the test day.
as §2, §3, §4

Assay [5] concerns flinch jump. The assay can be described thus: Flinch-jump test (FJ). The format is in vivo, male albino rats, Charles River (Sprague-Dawley) CD strain. Conditions: Rattus norvegicus, rats, 2 hours, read-out: ANALGESIC ACTIVITY ED50, FJ 2 hours.
From the text: Tests Using Electrical Nociceptive Stimuli
A modification of the flinch-jump procedure of Tenen, Psychopharmacologia, 12, 278-285 (1968) is used for determining pain thresholds. Male albino rats (175-200 g.) of the Charles River (Sprague-Dawley) CD strain are used. Prior to receiving the drug, the feet of each rat are dipped into a 20% glycerol/saline solution. The animals are then placed in a chamber and presented with a series of 1-second shocks to the feet which are delivered in increasing intensity at 30-second intervals. These intensities are 0.26, 0.39, 0.52, 0.78, 1.05, 1.31, 1.58, 1.86, 2.13, 2.42, 2.72 and 3.04 mA. Each animal's behavior is rated for the presence of (a) flinch, (b) squeak and (c) jump or rapid forward movement at shock onset. Single upward series of shock intensities are presented to each rat just prior to, and at 0.5, 2, 4 and 24 hours subsequent to drug treatment.
as §2, §3, §4

Assay [6] relates to phenylbenzoquinone-induced writhing. Nature of the assay: Suppression of phenylbenzoquinone irritant-induced writhing (PBQ). The format is in vivo, Carworth Farms CF-1 mice. As to conditions: Mus musculus, mice, read-out: ANALGESIC ACTIVITY ED50, PBQ. As to the method:
Test Using Chemical Nociceptive Stimuli
Suppression of Phenylbenzoquinone Irritant-Induced Writhing
Groups of 5 Carworth Farms CF-1 mice are pretreated subcutaneously or orally with saline, morphine, codeine or the test compound. Twenty minutes (if treated subcutaneously) or fifty minutes (if treated orally) later, each group is treated with intraperitoneal injection of phenylbenzoquinone, an irritant known to produce abdominal contractions. The mice are observed for 5 minutes for the presence or absence of writhing starting 5 minutes after the injection of the irritant. MPE50 's of the drug pretreatments in blocking writhing are ascertained.
as §2, §3, §4

In assay [7] the test system is central nervous system activity. As to conditions: Loev et al. 1973; cited from earlier work.
Assay [8] deals with hashish activity. As to conditions: Bergel et al. 1943, cited from earlier work.

The text below walks through data of US4243674A, “9-Hydroxydibenzo[b,d]pyrans and intermediates therefore” (priority 1978, dated 1981).

For `CC(CCCc1ccccc1)Oc1cc(O)c2c(c1)OC(C)(C)[C@@H]1CC[C@@H](O)C[C@@H]21` (relative stereo) [OCH(CH3)(CH2)3C6 H5, dl-6aβ,7,8,9,10,10aα-hexahydro-1-hydroxy-6,6-dimethyl-3-(1-methyl-4-phenylbutoxy)-6H-dibenzo[b,d]pyran-9β-ol], the ED50 in assay [1] came out at 0.33 mg/kg; in assay [2], 1.9 mg/kg; in assay [3] it was 0.76 mg/kg; in assay [4], 0.4 mg/kg; in assay [5], 0.44 mg/kg; in assay [6], 0.11 mg/kg.

On to `CCCCCC(C)Oc1cc(O)c2c(c1)OC(C)(C)[C@@H]1CC[C@@H](O)C[C@@H]21` (relative stereo) [OCH(CH3)C5 H11, dl-6aβ,7,8,9,10,10aα-Hexahydro-1-Hydroxy-6,6-Dimethyl-3-(2-Heptyloxy)-6H-Dibenzo[b,d]pyran-9β-ol], for which the ED50 in assay [1] was 0.46 mg/kg; in assay [2] it was 0.34 mg/kg; in assay [3] it was 1.2 mg/kg; in assay [4], 0.7 mg/kg; in assay [5] it was 0.3 mg/kg; in assay [6], 0.16 mg/kg.

For the molecule `CCCCCC(C)Oc1cc(O)c2c(c1)OC(C)(C)C1=C2CC(C)CC1` (stereo not shown) [--OCH(CH3)C5 H11], in assay [7], the “less active in central nervous system activity than the corresponding compound with the alkyl side chain directly attached” value is on record as 50% and the “times as active as the compound in which oxygen is replaced by methylene” value is 5 times.

Take `CCCCOc1cc(O)c2c(c1)OC(C)(C)C1=C2CC(C)CC1` (stereo not shown) [butoxy]: the “biological activity on replacing the 3-pentyl group by alkoxy” value (from here on “biological activity”) in assay [8] is listed as “biological inactivity”.

As to `CCCCCCOc1cc(O)c2c(c1)OC(C)(C)C1=C2CC(C)CC1` (stereo not shown) [hexoxy], the “biological activity” value in assay [8] is “biological inactivity”. Further, in assay [8] (at 10 to 20 mg./kg.), the hashish activity entry was “feeble hashish activity”.

On to `CCCCCCCCOc1cc(O)c2c(c1)OC(C)(C)C1=C2CC(C)CC1` (stereo not shown) [octoxy], for which the “biological activity” value in assay [8] is reported as “biological inactivity”.

Take `CCCCCOc1cc(O)c2c(c1)OC(C)(C)C1=C2CC(C)CC1` (stereo not shown) [pentoxy]: in assay [8], the “biological activity” value was “biological inactivity”.
